Experiments:
sugar beet = experiment: Test B pre/postemergence sugar beet; assay type: in vivo, Beta vulgaris
Text: (§1) Seeds of bedstraw (Galium aparine), blackgrass (Alopecurus myosuroides), surinam grass (Brachiaria decumbens), cocklebur (Xanthium strumarium), corn (Zea mays), crabgrass (Digitaria sanguinalis), giant foxtail (Setaria faberii), morningglory (Ipomoea hederacea), pigweed (Amaranthus retroflexus), rape (Brassica napus), soybean (Glycine max), sugar beet (Beta vulgaris), velvetleaf (Abutilon theophrasti), wheat (Triticum aestivum), wild oat (Avena fatua) and purple nutsedge (Cyperus rotundus) tubers were planted and treated preemnergence with test chemicals formulated in a non-phytotoxic solvent mixture which included a surfactant.
(§2) At the same time, these crop and weed species were also treated with postemergence applications of test chemicals formulated in the same manner. Plants ranged in height from 2 to 18 cm (1- to 4-leaf stage) for postemergence treatments. Plant species in the flood test consisted of rice (Oryza sativa), smallflower flatsedge (Cyperus difformis), duck salad (Heteranthera limosa) and bamyardgrass (Echinochloa crus-galli) grown to the 2-leaf stage for testing. Treated plants and controls were maintained in a greenhouse for twelve to sixteen days, after which all species were compared to controls and visually evaluated. Plant response ratings, summarized in Table B, are based on a scale of 0 to 10 where 0 is no effect and 10 is complete control. A dash (−) response means no test result.

purple nutsedge = experiment: Test B pre/postemergence purple nutsedge; assay type: in vivo, Cyperus rotundus
Text: as §1, §2

morningglory = experiment: Test B pre/postemergence morningglory; assay type: in vivo, Ipomoea hederacea
Text: as §1, §2

rape = experiment: Test B pre/postemergence rape; assay type: in vivo, Brassica napus
Text: as §1, §2

crabgrass = experiment: Test B pre/postemergence crabgrass; assay type: in vivo, Digitaria sanguinalis
Text: as §1, §2

soybean = experiment: Test B pre/postemergence soybean; assay type: in vivo, Glycine max
Text: as §1, §2

bedstraw = experiment: Test B pre/postemergence bedstraw; assay type: in vivo, Galium aparine
Text: as §1, §2

velvetleaf = experiment: Test B pre/postemergence velvetleaf; assay type: in vivo, Abutilon theophrasti
Text: as §1, §2

wheat = experiment: Test B pre/postemergence wheat; assay type: in vivo, Triticum aestivum
Text: as §1, §2

giant foxtail = experiment: Test B pre/postemergence giant foxtail; assay type: in vivo, Setaria faberii
Text: as §1, §2

blackgrass = experiment: Test B pre/postemergence blackgrass; assay type: in vivo, Alopecurus myosuroides
Text: as §1, §2

wild oat = experiment: Test B pre/postemergence wild oat; assay type: in vivo, Avena fatua
Text: as §1, §2

cocklebur = experiment: Test B pre/postemergence cocklebur; assay type: in vivo, Xanthium strumarium
Text: as §1, §2

pigweed = experiment: Test B pre/postemergence pigweed; assay type: in vivo, Amaranthus retroflexus
Text: as §1, §2

surinam grass = experiment: Test B pre/postemergence surinam grass; assay type: in vivo, Brachiaria decumbens
Text: as §1, §2

corn = experiment: Test B pre/postemergence corn; assay type: in vivo, Zea mays
Text: as §1, §2

[1] = Preemergence, Rate 62 g/ha, scale of 0 to 10 where 0 is no effect and 10 is complete control
[2] = Preemergence, Rate 125 g/ha, scale of 0 to 10 where 0 is no effect and 10 is complete control
[3] = Preemergence, Rate 250 g/ha, scale 0 to 10 (0 no effect, 10 complete control)
[4] = Preemergence, Rate 500 g/ha, scale of 0 to 10 where 0 is no effect and 10 is complete control
[5] = Postemergence, Rate 125 g/ha, scale of 0 to 10 where 0 is no effect and 10 is complete control
[6] = Preemergence, Rate 62 g/ha, scale 0 to 10 (0 no effect, 10 complete control)
[7] = Preemergence, Rate 125 g/ha, 0 is no effect, 10 is complete control
[8] = Preemergence, Rate 250 g/ha, scale 0 to 10, 0 is no effect, 10 is complete control
[9] = Preemergence, Rate 500 g/ha, scale 0 to 10 (0 no effect, 10 complete control)
[10] = Rate 62 g/ha, Postemergence, scale of 0 to 10 where 0 is no effect and 10 is complete control
[11] = Rate 250 g/ha, Postemergence, scale 0 to 10, 0 is no effect, 10 is complete control
[12] = Rate 500 g/ha, Postemergence, scale 0 to 10

CC(C)N(C(=O)n1oc(=O)n(C(C)C(=O)N2CCOCC2)c1=O)c1ccc(Cl)cc1 (stereo not shown) [Compound 703]
Sugarbeets plant response rating (sugar beet; [1]): 0 | Plant response rating, Sugarbeets (sugar beet; [2]): 0 | Nutsedge plant response rating (purple nutsedge; [1]): 0 | Plant response rating, Nutsedge (purple nutsedge; [2]): 0 | Morningglory plant response rating (morningglory; [1]): 0 | Plant response rating, Morningglory (morningglory; [2]): 0 | Rape plant response rating (rape; [1]): 0 | Plant response rating, Rape (rape; [2]): 0 | Crabgrass plant response rating (crabgrass; [1]): 5 | Plant response rating, Crabgrass (crabgrass; [2]): 8 | Plant response rating, Crabgrass (crabgrass; [3]): 9 | Soybean plant response rating (soybean; [1]): 0 | Plant response rating, Soybean (soybean; [2]): 0 | Bedstraw plant response rating (bedstraw; [1]): 0 | Plant response rating, Bedstraw (bedstraw; [2]): 0 | Plant response rating, Bedstraw (bedstraw; [3]): 0 | Plant response rating, Bedstraw (bedstraw; [4]): 0 | Velvetleaf plant response rating (velvetleaf; [1]): 0 | Plant response rating, Velvetleaf (velvetleaf; [2]): 0 | Wheat plant response rating (wheat; [1]): 0 | Plant response rating, Wheat (wheat; [2]): 0 | Giant foxtail plant response rating (giant foxtail; [1]): 5 | Plant response rating, Giant foxtail (giant foxtail; [2]): 7 | Blackgrass plant response rating (blackgrass; [1]): 0 | Plant response rating, Blackgrass (blackgrass; [2]): 3 | Plant response rating, Blackgrass (blackgrass; [3]): 6 | Plant response rating, Blackgrass (blackgrass; [4]): 8 | Wild oats plant response rating (wild oat; [1]): 0 | Plant response rating, Wild oats (wild oat; [2]): 0 | Cocklebur plant response rating (cocklebur; [1]): 0 | Plant response rating, Cocklebur (cocklebur; [2]): 0 | Plant response rating, Cocklebur (cocklebur; [3]): 0 | Plant response rating, Cocklebur (cocklebur; [4]): 0 | Redroot pigweed plant response rating (pigweed; [1]): 0 | Plant response rating, Redroot pigweed (pigweed; [2]): 4 | B. signalgrass plant response rating (surinam grass; [1]): 2 | Plant response rating, B. signalgrass (surinam grass; [2]): 3 | Plant response rating, B. signalgrass (surinam grass; [3]): 3 | Plant response rating, B. signalgrass (surinam grass; [4]): 8 | Corn plant response rating (corn; [1]): 0 | Plant response rating, Corn (corn; [2]): 0 | Plant response rating, Corn (corn; [3]): 0

CC(C)N(C(=O)n1oc(=O)n(C(C)c2ccccc2)c1=O)c1ccc(F)cc1 (stereo not shown) [Compound 134]
Sugarbeets plant response rating (sugar beet; [5]): 0 | Sugarbeets plant response rating (sugar beet; [6]): 0 | Sugarbeets plant response rating (0 to 10 scale) (sugar beet; [7]): 2 | Sugarbeets plant response rating (sugar beet; [8]): 4 | Sugarbeets plant response rating (sugar beet; [9]): 7 | Sugarbeets plant response rating (sugar beet; [10]): 0 | Plant response rating, Sugarbeets (sugar beet; [11]): 0 | Sugarbeets plant response rating (sugar beet; [12]): 2 | Nutsedge plant response rating (purple nutsedge; [5]): 0 | Nutsedge plant response rating (purple nutsedge; [6]): 0 | Nutsedge plant response rating (0 to 10 scale) (purple nutsedge; [7]): 0 | Nutsedge plant response rating (purple nutsedge; [8]): 0 | Nutsedge plant response rating (purple nutsedge; [9]): 0 | Nutsedge plant response rating (purple nutsedge; [10]): 0 | Plant response rating, Nutsedge (purple nutsedge; [11]): 0 | Nutsedge plant response rating (purple nutsedge; [12]): 0 | Morningglory plant response rating (morningglory; [5]): 6 | Morningglory plant response rating (morningglory; [6]): 0 | Morningglory plant response rating (0 to 10 scale) (morningglory; [7]): 0 | Morningglory plant response rating (morningglory; [8]): 0 | Morningglory plant response rating (morningglory; [9]): 1 | Morningglory plant response rating (morningglory; [10]): 5 | Plant response rating, Morningglory (morningglory; [11]): 8 | Morningglory plant response rating (morningglory; [12]): 8 | Rape plant response rating (rape; [5]): 0 | Rape plant response rating (rape; [6]): 0 | Rape plant response rating (0 to 10 scale) (rape; [7]): 0 | Rape plant response rating (rape; [8]): 0 | Rape plant response rating (rape; [9]): 6 | Rape plant response rating (rape; [10]): 0 | Plant response rating, Rape (rape; [11]): 0 | Rape plant response rating (rape; [12]): 0 | Crabgrass plant response rating (crabgrass; [5]): 0 | Crabgrass plant response rating (crabgrass; [6]): 2 | Crabgrass plant response rating (0 to 10 scale) (crabgrass; [7]): 6 | Crabgrass plant response rating (crabgrass; [8]): 9 | Crabgrass plant response rating (crabgrass; [9]): 9 | Crabgrass plant response rating (crabgrass; [10]): 0 | Plant response rating, Crabgrass (crabgrass; [11]): 4 | Crabgrass plant response rating (crabgrass; [12]): 9 | Soybean plant response rating (soybean; [5]): 1 | Soybean plant response rating (soybean; [6]): 0 | Soybean plant response rating (0 to 10 scale) (soybean; [7]): 0 | Soybean plant response rating (soybean; [8]): 0 | Soybean plant response rating (soybean; [9]): 0 | Soybean plant response rating (soybean; [10]): 1 | Plant response rating, Soybean (soybean; [11]): 1 | Soybean plant response rating (soybean; [12]): 1 | Bedstraw plant response rating (bedstraw; [5]): 4 | Bedstraw plant response rating (bedstraw; [6]): 0 | Bedstraw plant response rating (0 to 10 scale) (bedstraw; [7]): 0 | Bedstraw plant response rating (bedstraw; [8]): 0 | Bedstraw plant response rating (bedstraw; [9]): 3 | Bedstraw plant response rating (bedstraw; [10]): 4 | Plant response rating, Bedstraw (bedstraw; [11]): 4 | Velvetleaf plant response rating (velvetleaf; [5]): 0 | Velvetleaf plant response rating (velvetleaf; [6]): 0 | Velvetleaf plant response rating (0 to 10 scale) (velvetleaf; [7]): 0 | Velvetleaf plant response rating (velvetleaf; [8]): 2 | Velvetleaf plant response rating (velvetleaf; [9]): 7 | Velvetleaf plant response rating (velvetleaf; [10]): 0 | Plant response rating, Velvetleaf (velvetleaf; [11]): 0 | Velvetleaf plant response rating (velvetleaf; [12]): 4 | Wheat plant response rating (wheat; [5]): 0 | Wheat plant response rating (wheat; [6]): 0 | Wheat plant response rating (0 to 10 scale) (wheat; [7]): 0 | Wheat plant response rating (wheat; [8]): 0 | Wheat plant response rating (wheat; [9]): 0 | Wheat plant response rating (wheat; [10]): 0 | Plant response rating, Wheat (wheat; [11]): 0 | Wheat plant response rating (wheat; [12]): 0 | Giant foxtail plant response rating (giant foxtail; [5]): 0 | Giant foxtail plant response rating (giant foxtail; [6]): 6 | Giant foxtail plant response rating (0 to 10 scale) (giant foxtail; [7]): 9 | Giant foxtail plant response rating (giant foxtail; [8]): 10 | Giant foxtail plant response rating (giant foxtail; [9]): 10 | Giant foxtail plant response rating (giant foxtail; [10]): 0 | Plant response rating, Giant foxtail (giant foxtail; [11]): 0 | Giant foxtail plant response rating (giant foxtail; [12]): 3 | Blackgrass plant response rating (blackgrass; [5]): 0 | Blackgrass plant response rating (blackgrass; [6]): 0 | Blackgrass plant response rating (0 to 10 scale) (blackgrass; [7]): 0 | Blackgrass plant response rating (blackgrass; [8]): 2 | Blackgrass plant response rating (blackgrass; [9]): 2 | Blackgrass plant response rating (blackgrass; [10]): 0 | Plant response rating, Blackgrass (blackgrass; [11]): 0 | Blackgrass plant response rating (blackgrass; [12]): 7 | Wild oats plant response rating (wild oat; [5]): 0 | Wild oats plant response rating (wild oat; [6]): 0 | Wild oats plant response rating (0 to 10 scale) (wild oat; [7]): 0 | Wild oats plant response rating (wild oat; [8]): 2 | Wild oats plant response rating (wild oat; [9]): 2 | Wild oats plant response rating (wild oat; [10]): 0 | Plant response rating, Wild oats (wild oat; [11]): 0 | Wild oats plant response rating (wild oat; [12]): 0 | Cocklebur plant response rating (cocklebur; [5]): 0 | Cocklebur plant response rating (cocklebur; [6]): 0 | Cocklebur plant response rating (0 to 10 scale) (cocklebur; [7]): 0 | Cocklebur plant response rating (cocklebur; [8]): 0 | Cocklebur plant response rating (cocklebur; [9]): 0 | Cocklebur plant response rating (cocklebur; [10]): 0 | Plant response rating, Cocklebur (cocklebur; [11]): 0 | Cocklebur plant response rating (cocklebur; [12]): 1 | Redroot pigweed plant response rating (pigweed; [5]): 0 | Redroot pigweed plant response rating (pigweed; [6]): 0 | Redroot pigweed plant response rating (0 to 10 scale) (pigweed; [7]): 0 | Redroot pigweed plant response rating (pigweed; [8]): 0 | Redroot pigweed plant response rating (pigweed; [9]): 2 | Redroot pigweed plant response rating (pigweed; [10]): 0 | Plant response rating, Redroot pigweed (pigweed; [11]): 0 | Redroot pigweed plant response rating (pigweed; [12]): 0 | B. signalgrass plant response rating (surinam grass; [5]): 0 | B. signalgrass plant response rating (surinam grass; [6]): 0 | B. signalgrass plant response rating (0 to 10 scale) (surinam grass; [7]): 2 | B. signalgrass plant response rating (surinam grass; [8]): 6 | B. signalgrass plant response rating (surinam grass; [9]): 8 | B. signalgrass plant response rating (surinam grass; [10]): 0 | Plant response rating, B. signalgrass (surinam grass; [11]): 0 | B. signalgrass plant response rating (surinam grass; Rate 500 g/ha, Postemergence, scale of 0 to 10 where 0 is no effect and 10 is complete control): 2 | Corn plant response rating (corn; [5]): 0 | Corn plant response rating (corn; [6]): 0 | Corn plant response rating (0 to 10 scale) (corn; [7]): 0 | Corn plant response rating (corn; [8]): 0 | Corn plant response rating (corn; [9]): 0 | Corn plant response rating (corn; [10]): 0 | Plant response rating, Corn (corn; [11]): 0 | Corn plant response rating (corn; [12]): 0
